In patent US10011586B2, “Heterocyclic compound, method for preparing the same, and pharmaceutical composition comprising the same” (Daewoong Pharmaceutical Co., Ltd., priority 2015, dated 2018):
Like-named read-outs stand apart in the source and are kept apart here.

Tests used:
PRS enzyme = target: T1, PRS enzyme (Homo sapiens, UniProt P07814); experiment: PRS enzyme activity inhibition experiment; format: biochemical
T1 construct: the portion corresponding to PRS in cDNA of EPRS was subcloned; made in house
T1 sequence (P07814 1007-1512 limits assumed): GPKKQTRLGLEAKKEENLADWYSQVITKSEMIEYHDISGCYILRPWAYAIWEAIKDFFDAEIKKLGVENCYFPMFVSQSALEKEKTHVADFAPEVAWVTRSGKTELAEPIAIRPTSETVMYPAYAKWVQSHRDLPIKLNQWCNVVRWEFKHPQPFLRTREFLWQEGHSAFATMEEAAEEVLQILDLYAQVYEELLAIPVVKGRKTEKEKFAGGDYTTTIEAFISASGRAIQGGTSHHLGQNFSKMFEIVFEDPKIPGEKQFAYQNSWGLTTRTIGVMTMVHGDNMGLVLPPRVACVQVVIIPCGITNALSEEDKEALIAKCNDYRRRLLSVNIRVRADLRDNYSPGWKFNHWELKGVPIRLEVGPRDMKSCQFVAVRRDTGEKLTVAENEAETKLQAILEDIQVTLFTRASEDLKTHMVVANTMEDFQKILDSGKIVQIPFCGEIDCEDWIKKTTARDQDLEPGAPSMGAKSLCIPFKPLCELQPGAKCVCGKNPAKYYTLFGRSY
Experimental: Specifically, the portion corresponding to PRS in cDNA of EPRS was subcloned, and the obtained high-purity PRS protein was purified and used in the experiment. The compounds (1 μM) prepared in Examples were added into the reaction buffer (20 mM KPO4 (pH 7.4), 6 mM MgAc, 5 mM ATP, […] tRNA, 0.5 mM DTT, […][^3H]proline (1 mCi/mL)) and allowed to react at 37° C. for 5 to 10 minutes. The reaction was terminated with 3M paper that was in advance dried by addition of 5% TCA. The radioactivity was measured using a liquid scintillation counter.
% Inhibition and IC50 values of the respective compounds were calculated and analyzed using Microsoft Excel or Sigma Plot 8.0. In Table 1, the results are divided into A, B and C according to the range of IC50.

NCI-H460 cells = experiment: Cancer cell growth inhibition experiment (MTT assay); format: cell-based; conditions: Homo sapiens, lung cancer cell line, compounds 48 hours, cell viability by MTT assay
Experimental: NCl-H460 cells, lung cancer cell lines, were cultured in 5% CO2, 37° C. incubator using a flask for 75 cm^2 tissue culture. 96-well plates were used for the evaluation. These were prepared by differently applying at concentrations in the range of 6,000 to 12,000 cells/well according to the growth rate of the cell lines. The medium containing 5% FBS were dispensed in 200 μL/well and used. The medium were cultured for 24 hours. After confirming the cell status and dispensing form of a 96-well plate under a microscope, they were used for subsequent experiments. The compounds were evaluated at concentrations of 100, 30, 10, 3, 1, 0.3, 0.03, 0.01 μM. After removing the existing medium, the compounds with various concentrations were treated in an amount of 200 μL/well. The compounds-treated plates were further cultured for 48 hours, and the cell viabilities were measured by MTT assay to calculate IC50 values.
% Inhibition and IC50 values of the respective compounds were calculated and analyzed using Sigma Plot 8.0. In Table 2, the results are divided into A, B and C according to the range of IC50. The case where the derived IC50 is 3 μM or less is represented by “A”, the case where the IC50 is 3 to 10 μM is represented by “B”, and the case where the IC50 is 10 μM or higher is represented by “C”.

[1] = purified PRS protein subcloned from EPRS cDNA, [3H]proline, 37° C., 5 to 10 minutes, liquid scintillation counter, read-out: PRS IC50

Row | Structure (SMILES) | IC50 (PRS enzyme; [1]) [nM] | IC50 (NCI-H460 cells) [nM] | IC50 (PRS enzyme) [nM]
1 | O=C(C[C@H]1NCCC[C@@H]1O)Cn1cnc2cccc(-c3cccc(Cl)c3)c21 [Example 50, 1-(7-(3-chlorophenyl)-1H-benzo[d]imidazol-1-yl)-3-((2R,3S)-3-hydroxypiperidin-2-yl)propan-2-one] | 100 to 500 | ≥ 10000 | –
2 | Cc1c(-c2cccc(C#N)c2)ccc2c1ncn2CC(=O)C[C@H]1NCCC[C@@H]1O [Example 20, 3-(1-(3-((2R,3S)-3-hydroxypiperidin-2-yl)-2-oxopropyl)-4-methyl-1H-benzo[d]imidazol-5-yl)benzonitrile] | > 500 | ≥ 10000 | –
3 | Cc1c(-c2ccc(Cl)cc2)ccc2c1ncn2CC(=O)C[C@H]1NCCC[C@@H]1O [Example 19, 1-(5-(4-chlorophenyl)-4-methyl-1H-benzo[d]imidazol-1-yl)-3-((2R,3S)-3-hydroxypiperidin-2-yl)propan-2-one] | 100 to 500 | ≥ 10000 | –
4 | OC(C[C@H]1NCCC[C@@H]1O)Cn1cnc2ccc(-c3cccc(Cl)c3)nc21 (stereo partly drawn) [Example 62, (2R,3S)-2-(3-(5-(3-chlorophenyl)-3H-imidazo[4,5-b]pyridin-3-yl)-2-hydroxypropyl)piperidin-3-ol] | < 100 | ≥ 10000 | –
5 | O=C(C[C@H]1NCCC[C@@H]1O)Cn1cnc2c(-c3cccc(C(F)(F)F)c3)nccc21 [Example 4, 1-((2R,3S)-3-hydroxypiperidin-2-yl)-3-(4-(3-(trifluoromethyl)phenyl)-1H-imidazo[4,5-c]pyridin-1-yl)propan-2-one] | > 500 | – | –
6 | O=C(C[C@H]1NCCC[C@@H]1O)Cn1c(CO)nc2cc(-c3ccccc3)ccc21 [Example 55, 1-(2-(hydroxymethyl)-5-phenyl-1H-benzo[d]imidazol-1-yl)-3-((2R,3S)-3-hydroxypiperidin-2-yl)propan-2-one] | – | – | > 500
7 | O=C(C[C@H]1NCCC[C@@H]1O)Cn1cnc2c(-c3cc(F)cc(Cl)c3)nccc21 [Example 5, 1-(4-(3-chloro-5-fluorophenyl)-1H-imidazo[4,5-c]pyridin-1-yl)-3-((2R,3S)-3-hydroxypiperidin-2-yl)propan-2-one] | > 500 | – | –
8 | O=C(C[C@H]1NCCC[C@@H]1O)Cn1cnc2c(-c3cc(Cl)cc(Cl)c3)nccc21 [Example 6, 1-(4-(3,5-dichlorophenyl)-1H-imidazo[4,5-c]pyridin-1-yl)-3-((2R,3S)-3-hydroxypiperidin-2-yl)propan-2-one] | > 500 | – | –
9 | O=C(C[C@H]1NCCC[C@@H]1O)Cn1cnc2c(N3CCCC3)nccc21 [Example 7, 1-((2R,3S)-3-hydroxypiperidin-2-yl)-3-(4-(pyrrolidin-1-yl)-1H-imidazo[4,5-c]pyridin-1-yl)propan-2-one] | – | ≥ 10000 | –
10 | O=C(C[C@H]1NCCC[C@@H]1O)Cn1cnc2nc(-c3ccccc3F)ccc21 [Example 9, 1-(5-(2-fluorophenyl)-1H-imidazo[4,5-b]pyridin-1-yl)-3-((2R,3S)-3-hydroxypiperidin-2-yl)propan-2-one] | > 500 | – | –
11 | O=C(C[C@H]1NCCC[C@@H]1O)Cn1cnc2cccc(-c3cccc(C(F)(F)F)c3)c21 [Example 53, 1-((2R,3S)-3-hydroxypiperidin-2-yl)-3-(7-(3-(trifluoromethyl)phenyl)-1H-benzo[d]imidazol-1-yl)propan-2-one] | > 500 | – | –
12 | O=C(C[C@H]1NCCC[C@@H]1O)Cn1cnc2nc(-c3cccc(C(F)(F)F)c3)ccc21 [Example 13, 1-((2R,3S)-3-hydroxypiperidin-2-yl)-3-(5-(3-(trifluoromethyl)phenyl)-1H-imidazo[4,5-b]pyridin-1-yl)propan-2-one] | > 500 | – | –
13 | O=C(C[C@H]1NCCC[C@@H]1O)Cn1cnc2cccc(-c3ccccc3C(F)(F)F)c21 [Example 52, 1-((2R,3S)-3-hydroxypiperidin-2-yl)-3-(7-(2-(trifluoromethyl)phenyl)-1H-benzo[d]imidazol-1-yl)propan-2-one] | > 500 | – | –

Continued, in another order:

Row | IC50 (PRS enzyme; [1]) [nM] | IC50 (NCI-H460 cells) [nM] | Structure (SMILES) | IC50 (PRS enzyme) [nM]
14 | > 500 | ≥ 10000 | O=C(C[C@H]1NCCC[C@@H]1O)Cn1cnc2cc(-c3ccccc3)ccc21 [Example 8, 1-((2R,3S)-3-hydroxypiperidin-2-yl)-3-(5-phenyl-1H-benzo[d]imidazol-1-yl)propan-2-one] | –
15 | 100 to 500 | ≤ 3000 | O=C(C[C@H]1NCCC[C@@H]1O)Cn1c(CO)nc2ccc(-c3cccc(C(F)(F)F)c3)cc21 [Example 61, 1-(2-(hydroxymethyl)-6-(3-(trifluoromethyl)phenyl)-1H-benzo[d]imidazol-1-yl)-3-((2R,3S)-3-hydroxypiperidin-2-yl)propan-2-one] | –
16 | < 100 | ≤ 3000 | O=C(C[C@H]1NCCC[C@@H]1O)Cn1cnc2ccc(-c3cccc(Cl)c3)nc21 [Example 46, 1-(5-(3-chlorophenyl)-3H-imidazo[4,5-b]pyridin-3-yl)-3-((2R,3S)-3-hydroxypiperidin-2-yl)propan-2-one] | –
17 | < 100 | ≤ 3000 | O=C(C[C@H]1NCCC[C@@H]1O)Cn1c(CO)nc2ccc(-c3cccc(F)c3)cc21 [Example 59, 1-(6-(3-fluorophenyl)-2-(hydroxymethyl)-1H-benzo[d]imidazol-1-yl)-3-((2R,3S)-3-hydroxypiperidin-2-yl)propan-2-one] | –
18 | < 100 | ≤ 3000 | O=C(C[C@H]1NCCC[C@@H]1O)Cn1cnc2ccc(-c3cccc(F)c3)nc21 [Example 44, 1-(5-(3-fluorophenyl)-3H-imidazo[4,5-b]pyridin-3-yl)-3-((2R,3S)-3-hydroxypiperidin-2-yl)propan-2-one] | –
19 | < 100 | ≥ 10000 | O=C(C[C@H]1NCCC[C@@H]1O)Cn1cnc2ncc(-c3cccc(Cl)c3)cc21 [Example 41, 1-(6-(3-chlorophenyl)-1H-imidazo[4,5-b]pyridin-1-yl)-3-((2R,3S)-3-hydroxypiperidin-2-yl)propan-2-one] | –
20 | > 500 | – | O=C(C[C@H]1NCCC[C@@H]1O)Cn1cnc2c(-c3cccc(Cl)c3)nccc21 [Example 3, 1-(4-(3-chlorophenyl)-1H-imidazo[4,5-c]pyridin-1-yl)-3-((2R,3S)-3-hydroxypiperidin-2-yl)propan-2-one] | –
21 | 100 to 500 | – | O=C(C[C@H]1NCCC[C@@H]1O)Cn1cnc2ncc(-c3cccc(C(F)(F)F)c3)cc21 [Example 42, 1-((2R,3S)-3-hydroxypiperidin-2-yl)-3-(6-(3-(trifluoromethyl)phenyl)-1H-imidazo[4,5-b]pyridin-1-yl)propan-2-one] | –
22 | > 500 | – | O=C(C[C@H]1NCCC[C@@H]1O)Cn1cnc2cc(-c3cccc(C(F)(F)F)c3)cnc21 [Example 15, 1-((2R,3S)-3-hydroxypiperidin-2-yl)-3-(6-(3-(trifluoromethyl)phenyl)-3H-imidazo[4,5-b]pyridin-3-yl)propan-2-one] | –
23 | > 500 | – | O=C(C[C@H]1NCCC[C@@H]1O)Cn1cnc2nc(-c3ccc(F)cc3)ccc21 [Example 11, 1-(5-(4-fluorophenyl)-1H-imidazo[4,5-b]pyridin-1-yl)-3-((2R,3S)-3-hydroxypiperidin-2-yl)propan-2-one] | –
24 | > 500 | – | O=C(C[C@H]1NCCC[C@@H]1O)Cn1cnc2nc(-c3cccc(F)c3)ccc21 [Example 10, 1-(5-(3-fluorophenyl)-1H-imidazo[4,5-b]pyridin-1-yl)-3-((2R,3S)-3-hydroxypiperidin-2-yl)propan-2-one] | –
25 | > 500 | – | O=C(C[C@H]1NCCC[C@@H]1O)Cn1cnc2c(-c3cccc(F)c3)nccc21 [Example 2, 1-(4-(3-fluorophenyl)-1H-imidazo[4,5-c]pyridin-1-yl)-3-((2R,3S)-3-hydroxypiperidin-2-yl)propan-2-one] | –
26 | > 500 | – | O=C(C[C@H]1NCCC[C@@H]1O)Cn1cnc2nc(-c3cccc(Cl)c3)ccc21 [Example 12, 1-(5-(3-chlorophenyl)-1H-imidazo[4,5-b]pyridin-1-yl)-3-((2R,3S)-3-hydroxypiperidin-2-yl)propan-2-one] | –
